BindingDB's records for doi:10.1016/j.chembiol.2016.11.011 (McMaster University, 2017)

Biological target: 2''-aminoglycoside nucleotidyltransferase (Pseudomonas aeruginosa (g-Proteobacteria))
Assay: In Vitro ANT(2")-Ia Pyrophosphatase Assay
Experimental: In vitro ANT(2")-Ia pyrophosphatase assays were performed as described previously (Cox et al., 2015; Hirsch et al., 2014), with minor modifications. To improve compound solubility, Tween 20 was added to a final concentration of 0.01% (v/v) and compounds were added at a final concentration of 2% (v/v) DMSO. The enzyme ([…] reaction volume) was incubated with compound for 10 min at 25 °C, prior to initiation of the reaction with nucleotide. All inhibitory assays were performed with kanamycin B kept at Km (Cox et al., 2015; Hirsch et al., 2014).

Ki [µM] | Structure (SMILES)
60 | CS(=O)(=O)CCNCc1ccc(-c2ccc3ncnc(Nc4ccc(OCc5ccccc5)c(Cl)c4)c3c2)o1
12.9 | [O-][S+]1CCN(Cc2ccc(-c3ccc4ncnc(Nc5ccc(OCc6ccccc6)c(Cl)c5)c4c3)o2)CC1 [(4-benzyloxy-3-chloro-phenyl)-{6-[5-(1-oxo-1lambda*4*-thiomorpholin-4-ylmethyl)-furan-2-yl]-quinazolin-4-yl}-amine]
